Common to all, as to test: relative viability (nuclei count vs DMSO), 5 days (fraction); higher = more cells survive
Compound in assay [1]: C=CC(=O)N1CCC[C@@H](n2nc(-c3ccc(Oc4ccccc4)cc3)c3c(N)ncnc32)C1 [Ibrutinib] + CC(=O)Nc1cccc(-n2c(=O)n(C3CC3)c(=O)c3c(Nc4ccc(I)cc4F)n(C)c(=O)c(C)c32)c1 [Trametinib] (partner 0.02 µM)
The method, boiled down:
(§1)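 One day after seeding in 1536-well plates, lung cancer cell lines were dosed by pin tool. Dosing was either single-drug or a fixed anchor-drug dose plus five library-drug doses (not always all listed) in √10 steps. After 5 days, nuclei were stained in one fix-and-stain step and counted on 4× images, and relative viability is the nuclei count of treated wells over that of vehicle wells, given as the median of duplicate plates.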

Compound in assay [2]: C=CC(=O)Nc1cc(-n2c(=O)ccc3cnc4ccc(-c5ccc(NS(C)(=O)=O)cc5)cc4c32)ccc1C [BMX-IN-1] + COc1cccc2cc(-c3nc([C@H]4CC[C@H](C(=O)O)CC4)n4ncnc(N)c34)[nH]c12 [OSI-027] (partner 0.5 µM)
The method, boiled down:
as §1

Compound in assay [3]: C=CCc1cccc(/C=N/NC(=O)CN2CCN(Cc3ccccc3)CC2)c1O [PAC-1] + CC1(C)CCC(c2ccc(Cl)cc2)=C(CN2CCN(c3ccc(C(=O)NS(=O)(=O)c4ccc(N[C@H](CCN5CCOCC5)CSc5ccccc5)c(S(=O)(=O)C(F)(F)F)c4)cc3)CC2)C1 [Navitoclax] (partner 0.5 µM)
An outline of the steps:
as §1

Compound in assay [4]: C=CCc1cccc(/C=N/NC(=O)CN2CCN(Cc3ccccc3)CC2)c1O [PAC-1] + Nc1nc2[nH]cc(CCc3ccc(C(=O)N[C@@H](CCC(=O)O)C(=O)O)cc3)c2c(=O)[nH]1 [Pemetrexed] (partner 0.2 µM)
An outline of the steps: as §1

Take SK-MES-1: the relative viability in assay [1] (first compound 0.005 µM) was 0.591; in assay [1] (first compound 0.01581 µM) it was 0.467; in assay [1] (first compound 0.05 µM) it was 0.36; in assay [1] (first compound 0.1581 µM), 0.611; in assay [1] (first compound 0.5 µM) it was 0.297; in assay [2] (first compound 0.02 µM) it was 0.783. In addition, the relative viability in assay [2] (first compound 0.2 µM) is 0.645; in assay [2] (first compound 0.6325 µM), 0.757; in assay [2] (first compound 2 µM) it was 0.239; in assay [3] (first compound 0.02 µM), 1.09; in assay [3] (first compound 0.06325 µM) it was 1.3; in assay [3] (first compound 0.2 µM), 1.19. For the same cell line, the relative viability in assay [3] (first compound 2 µM) came out at 1.21; in assay [4] (first compound 0.02 µM) it was 0.939; in assay [4] (first compound 0.06325 µM) it was 1.02; in assay [4] (first compound 0.2 µM), 0.889; in assay [4] (first compound 2 µM) it was 0.971.

The record behind these values is the supplement of paper PMC10307832.
